Data as given in patent US8114892B2, “Methods and compositions for the treatment of Parkinson's Disease” (The McLean Hospital Corporation, priority 2006, dated 2012).
“Also recorded” adds a separate entry of the source.

Assays:
Format in all cases: cell-based
[1] = test system: mouse ES cell-derived neurons (ES cell lines D3 and J1); experiment: Dopaminergic neuronal differentiation of ES cells in vitro (5-stage method), TH+/Tuj1+ immunostaining; conditions: 2 uM added at day five of the ES-derived neuronal stage for four days
Source text: FIG. 10A is a pair of photos showing embryonic stem (ES) cell-derived neurons subjected to an indirect immunohistochemical assay (TH+/Tuj1+ staining). ES-derived neurons were immunolabeled with anti-β-tubulin III and anti-TH. Superposition of both proteins under a fluorescent microscope is shown in white. DMSO was used as a control.
For in vitro differentiation of ES cells, we used the 5-stage method, which is known in the art (see, e.g., Lee et al., Nat. Biotechnol. 18:675-679, 2000) and is useful for distinguishing each stage of developmental progression of ES cells. The mouse blastocyst-derived ES cell lines D3 and J1 were propagated and maintained according to methods well-known in the art (see, e.g., Deacon et al., Exp. Neurol., 149:28-41, 1998, and Chung et al., Stem Cells, 20:139-145, 2002). The mouse ES cells were generated as embryoid bodies (EBs) on nonadherent bacterial dishes for four days in growth medium consisting of DMEM supplemented with 2 mM L-glutamine, 0.001% β-mercaptoethanol, 1× non-essential amino acids (all from Invitrogen), and 10% FBS (Hyclone). The EBs were then plated onto adhesive tissue culture dish surfaces. After 24 hours in culture, selection of nestin-positive cells was performed in serum-free ITSFn medium. […]

[2] = target: T1, GAL4 DBD-Nurr1 LBD (Homo sapiens, UniProt P43354); experiment: Secondary screening: GAL4-DBD construct fused with Nurr1-LBD, luciferase reporter in SK-N-BE(2)C cells; conditions: incubation for eighteen hours
T1 construct: expressed in transfected cells; host or cells: SK-N-BE(2)C cells, transient transfection
T1 sequence (P43354 360-595 limits assumed): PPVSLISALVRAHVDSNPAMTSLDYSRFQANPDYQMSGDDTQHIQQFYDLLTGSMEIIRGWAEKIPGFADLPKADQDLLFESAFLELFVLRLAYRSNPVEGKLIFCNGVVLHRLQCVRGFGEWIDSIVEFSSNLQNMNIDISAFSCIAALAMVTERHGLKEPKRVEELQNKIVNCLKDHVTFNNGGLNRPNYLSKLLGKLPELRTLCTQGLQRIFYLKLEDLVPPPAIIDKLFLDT
T1 sequence (P04386 1-147 partner limits assumed): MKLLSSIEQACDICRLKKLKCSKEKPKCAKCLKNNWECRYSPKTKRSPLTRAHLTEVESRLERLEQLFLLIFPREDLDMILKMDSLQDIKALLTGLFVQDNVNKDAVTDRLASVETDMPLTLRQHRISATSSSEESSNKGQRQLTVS
Method: FIG. 7 includes a chart showing secondary screening data with primary hit chemicals. Transiently expressed Nurr1 activity in SK-N-BE(2)C cells was measured by luciferase activity after incubation of each compound with GAL4-DBD construct fused with Nurr1-LBD for eighteen hours. […] Also shown is a schematic representation of the GAL4-DBD-Nurr1-LBD fusion construct activating the firefly luciferase reporter gene.
As a secondary screening system, GAL4 DNA binding domain (DBD) constructs were used, which separately fused whole Nurr1, Nurr1-ligand binding domain (LBD), or Nurr1-DNA binding domain to the yeast GAL4 DBD. […] 6-MP, regulating Nurr1 through a region in the amino terminus, was used as a negative control in this experiment.

[3] = target: T2, Nurr1 (Homo sapiens, UniProt P43354); experiment: Primary screening: Nurr1 effector with 2.6-TH promoter firefly luciferase reporter, transient transfection in SK-N-BE(2)C cells; conditions: incubation for eighteen hours; for Hit identification in repeated primary screening (luciferase activity): pcDNA-Nurr1 construct
T2 construct: effector plasmid containing the Nurr1 gene; expressed in transfected cells; host or cells: SK-N-BE(2)C human neuroblastoma cells, transient transfection
T2 sequence (P43354 whole entry): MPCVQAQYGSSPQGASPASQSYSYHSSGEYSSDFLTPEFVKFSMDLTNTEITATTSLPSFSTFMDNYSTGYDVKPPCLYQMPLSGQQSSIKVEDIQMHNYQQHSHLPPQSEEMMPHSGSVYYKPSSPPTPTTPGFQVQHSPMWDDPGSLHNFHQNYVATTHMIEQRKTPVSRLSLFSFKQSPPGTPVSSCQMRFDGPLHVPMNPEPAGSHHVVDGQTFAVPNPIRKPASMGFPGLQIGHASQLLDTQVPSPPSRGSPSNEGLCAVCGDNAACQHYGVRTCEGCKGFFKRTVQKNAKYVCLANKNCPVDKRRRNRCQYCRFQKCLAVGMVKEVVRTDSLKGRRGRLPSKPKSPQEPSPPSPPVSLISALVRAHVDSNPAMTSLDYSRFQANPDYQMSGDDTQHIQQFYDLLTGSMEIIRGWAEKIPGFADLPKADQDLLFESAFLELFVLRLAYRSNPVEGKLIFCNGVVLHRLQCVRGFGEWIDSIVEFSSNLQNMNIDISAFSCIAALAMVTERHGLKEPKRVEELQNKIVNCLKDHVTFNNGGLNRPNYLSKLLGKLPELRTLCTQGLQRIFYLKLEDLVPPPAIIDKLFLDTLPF
Method: FIG. 5A is a chart showing preliminary screening data with a small chemical library. Transiently expressed Nurr1 activity in SK-N-BE(2)C cells was measured by luciferase activity with 2.6-TH promoter after incubation with each compound for eighteen hours. […] Each column has eight different chemical compounds. FIG. 5B is a chart showing further preliminary screening data with a small chemical library. Transiently expressed Nurr1 activity in SK-N-BE(2)C cells was measured by luciferase activity with 2.6-TH promoter after incubation with each compound for eighteen hours. […] Each column has eight different chemical compounds.
Transiently expressed Nurr1 activity in SK-N-BE(2)C cells was measured by luciferase activity after incubation of each compound with the pcDNA-Nurr1 construct for eighteen hours.
A cell-based system exploiting Nurr1's activation of TH was created in order to develop an assay for identification of Nurr1-activating compounds. […] In addition, a transient transfection was selected, rather than using stable cell-line transfection, to favor the maximum responsiveness of compounds to the reporter gene in order to detect low-affinity hit chemicals in the first screening. Another parameter considered was the selection of short-sized natural TH promoters with all essential NBRE (Nurr1-binding)-like motifs rather than one specific kind of NBRE-motif, based on the assumption that the natural promoter generates closer biological screening condition than artificially copied promoter and the false positive chemicals due to the interaction of other unrelated transcription factors can be easily ruled out by the effective secondary screening method.
To explore this new Nurr1 cell based assay system, several combinations of variable parameters, including effector gene promoter, internal control gene promoter, TH promoter size, promoter of internal control gene, transient transfection condition, serum concentration, and DMSO effect were tried. […]

Row | Compound | Number of TH+ cells during in vitro ES cell differentiation, in comparison with the control DMSO [1] | Hit identification in secondary screening (luciferase activity) ([2]; listed as Amodiaquine) | Hit identification in secondary screening (luciferase activity) ([2]; listed as amodiaquine) | Hit identification in repeated primary screening (luciferase activity) [3] | Luciferase activity compared to control with DMSO, preliminary screening ([3]; 2.6-TH promoter) | Hit identification in secondary screening (luciferase activity) [2]
1 | CCN(CC)Cc1cc(Nc2ccnc3cc(Cl)ccc23)ccc1O [Amodiaquine (4E), amodiaquine] | increased the number of TH+ cells | identified as hit candidate compounds | hit candidates | hit candidates |  | 
2 | CCN(CC)CCCC(C)Nc1ccnc2cc(Cl)ccc12 (stereo not shown) [Chloroquine diphosphate, chloroquine diphosphate] |  |  |  |  | apparent increase in luciferase activity | 
3 | O=C(OCC(O)CO)c1ccccc1Nc1ccnc2cc(Cl)ccc12 (stereo not shown) [Glafenine (11D), glafenine] |  |  |  | hit candidates |  | identified as hit candidate compounds; also recorded: hit candidates
